The first assay deals with SHP2 (Homo sapiens (Human), UniProt Q06124). Briefly: SHP2 allosteric inhibition assay (DiFMUP prompt fluorescence). In kind it is biochemical. As to conditions: Table 1; 0.25 nM SHP2 with 0.5 μM peptide IRS1_pY1172(dPEG8)pY1222, substrate DiFMUP 100 μM.
Sequence of SHP2 (Q06124 whole entry): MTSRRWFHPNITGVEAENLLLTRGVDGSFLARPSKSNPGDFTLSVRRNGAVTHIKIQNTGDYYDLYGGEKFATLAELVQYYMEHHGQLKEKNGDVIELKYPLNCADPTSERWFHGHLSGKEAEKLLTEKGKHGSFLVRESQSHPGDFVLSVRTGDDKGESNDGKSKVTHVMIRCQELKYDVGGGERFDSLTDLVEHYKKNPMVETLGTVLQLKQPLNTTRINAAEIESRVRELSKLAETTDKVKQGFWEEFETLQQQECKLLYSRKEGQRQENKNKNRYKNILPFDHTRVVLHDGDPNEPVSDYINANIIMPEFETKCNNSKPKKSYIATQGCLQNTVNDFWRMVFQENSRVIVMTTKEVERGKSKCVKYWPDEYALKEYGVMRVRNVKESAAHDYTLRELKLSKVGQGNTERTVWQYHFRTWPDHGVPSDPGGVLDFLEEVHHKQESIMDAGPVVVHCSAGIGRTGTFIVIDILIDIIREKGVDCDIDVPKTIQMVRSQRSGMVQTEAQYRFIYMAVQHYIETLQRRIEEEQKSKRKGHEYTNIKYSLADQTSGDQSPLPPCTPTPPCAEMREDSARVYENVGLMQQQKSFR
For the molecule `O=S(=O)(F)c1cccc2c1CCCN2c1n[nH]c2nc(N3CCCCC3)cnc12` [Compound 4A], the IC50 was ≥ 10000 nM.

On to `O=S(=O)(F)Oc1ccc2c(c1)CCCN2c1n[nH]c2nc(N3CCCCC3)cnc12` [Compound 1A], for which the IC50 was ≥ 10000 nM.

The assay is the same for the next values; noted with them: Table 2; 0.25 nM SHP2 with 0.5 μM peptide IRS1_pY1172(dPEG8)pY1222, substrate DiFMUP 100 μM.
In the case of `C[C@H]1CCN(c2n[nH]c3nc([C@H]4CC[C@H](CN)CC4)cnc23)c2ccc(C#N)cc21` [Compound 19B, (4S)-4-methyl-1-{6-[(1s,4s)-4-(aminomethyl)cyclohexyl]-1H-pyrazolo[3,4-b]pyrazin-3-yl}-1,2,3,4-tetrahydroquinoline-6-carbonitrile], the IC50 is 1000 to 10000 nM.

Consider `COC(=O)C1(c2cnc3c(-c4cccc(Cl)c4F)n[nH]c3n2)CCNCC1` [Compound 1B, methyl 4-(3-(3-chloro-2-fluorophenyl)-1H-pyrazolo[3,4-b]pyrazin-6-yl)piperidine-4-carboxylate], for which the IC50 is < 1000 nM.

`C[C@H]1CCN(c2n[nH]c3nc([C@H]4CC[C@@H](CN)CC4)cnc23)c2ccc(C#N)cc21` [Compound 18B, (4S)-4-methyl-1-{6-[(1r,4r)-4-(aminomethyl)cyclohexyl]-1H-pyrazolo[3,4-b]pyrazin-3-yl}-1,2,3,4-tetrahydroquinoline-6-carbonitrile]: the IC50 is < 1000 nM.

Regarding `CC1(CN)CCN(C(=O)c2cnc3c(-c4cccc(Cl)c4F)n[nH]c3n2)C1` (centres unmarked) [Compound 6B], the IC50 was ≥ 10000 nM.

On to `NCc1ccccc1-c1cnc2c(N3CCCc4ncccc43)n[nH]c2n1` [Compound 10B, (2-(3-(3,4-dihydro-1,5-naphthyridin-1(2H)-yl)-1H-pyrazolo[3,4-b]pyrazin-6-yl)phenyl)methanamine], for which the IC50 was ≥ 10000 nM.

Take `NCC1CCCCN1C(=O)c1cnc2c(-c3cccc(Cl)c3F)n[nH]c2n1` (centres unmarked) [Compound 13B]: the half-inhibitory concentration (IC50) is ≥ 10000 nM.

Still in this assay, the particulars now being: Table 3; 0.25 nM SHP2 with 0.5 μM peptide IRS1_pY1172(dPEG8)pY1222, substrate DiFMUP 100 μM.
`Cc1nc2c(N3CCCc4ncccc43)n[nH]c2nc1N1CCC(C)(CN)CC1` [Compound 6C, (1-(3-(3,4-dihydro-1,5-naphthyridin-1(2H)-yl)-5-methyl-1H-pyrazolo[3,4-b]pyrazin-6-yl)-4-methylpiperidin-4-yl)methanamine]: the IC50 is < 1000 nM.

As to `CC1(N)CCN(c2nc3[nH]nc(-c4cccc(Cl)c4F)c3nc2C(N)=O)CC1` [Compound 3C, 6-(4-amino-4-methylpiperidin-1-yl)-3-(3-chloro-2-fluorophenyl)-1H-pyrazolo[3,4-b]pyrazine-5-carboxamide], the half-maximal inhibitory concentration (IC50) is < 1000 nM.

For the molecule `COCc1nc2c(N3CCCc4ncccc43)n[nH]c2nc1N1CCC(C)(CN)CC1` [Compound 15C], the IC50 was < 1000 nM.

On to `CC1(CN)CCN(c2nc3[nH]nc(-c4cccc(Cl)c4F)c3nc2C(N)=O)CC1` [Compound 2C], for which the IC50 is < 1000 nM.

As to `CC1(CN)CCN(c2nc3[nH]nc(N4CCCc5ncccc54)c3nc2C(N)=O)CC1` [Compound 8C, 6-[4-(aminomethyl)-4-methylpiperidin-1-yl]-3-(1,2,3,4-tetrahydro-1,5-naphthyridin-1-yl)-1H-pyrazolo[3,4-b]pyrazine-5-carboxamide], the IC50 is < 1000 nM.

As to `C[C@@H]1OCC2(CCN(c3nc4[nH]nc(-c5cccc6ncccc56)c4nc3CO)CC2)[C@@H]1N` [Compound 22C, (6-((3S,4S)-4-amino-3-methyl-2-oxa-8-azaspiro[4.5]decan-8-yl)-3-(quinolin-5-yl)-1H-pyrazolo[3,4-b]pyrazin-5-yl)methanol], the IC50 is < 1000 nM.

Take `CC(=O)N1CCN(c2n[nH]c3nc(N4CCC5(CC4)CO[C@@H](C)[C@H]5N)c(CO)nc23)c2ccccc21` [Compound 23C]: the 50% inhibitory concentration (IC50) is < 1000 nM.

Turning to `CC1(CN)CCN(c2nc3[nH]nc(N4CCCc5ncccc54)c3nc2CO)CC1` [Compound 11C, (6-(4-(aminomethyl)-4-methylpiperidin-1-yl)-3-(3,4-dihydro-1,5-naphthyridin-1(2H)-yl)-1H-pyrazolo[3,4-b]pyrazin-5-yl)methanol], the IC50 is < 1000 nM.

The assay is the same for the next values; noted with them: Table 4; 0.25 nM SHP2 with 0.5 μM peptide IRS1_pY1172(dPEG8)pY1222, substrate DiFMUP 100 μM.
In the case of `CN(c1cnc2c(N3CCCc4ncccc43)n[nH]c2n1)c1ncccc1CCN` [Compound 3D, N-(3-(2-aminoethyl)pyridin-2-yl)-3-(3,4-dihydro-1,5-naphthyridin-1(2H)-yl)-N-methyl-1H-pyrazolo[3,4-b]pyrazin-6-amine], the IC50 is 1000 to 10000 nM.

Source of the values: patent US12138263B2, “Pyrazolo[3,4-b]pyrazine SHP2 phosphatase inhibitors and methods of use thereof” (Relay Therapeutics, Inc., priority 2018, dated 2024).
